The supplement of paper PMC5908809

Assays:
[1] = system: normal NK cells expanded with K562-aAPC; assay: percent inhibition of viability; higher = more inhibition; conditions: 72 h, IL-2 2.5 ng/mL
Description: (§1)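 Drug sensitivity and resistance testing on K562-aAPC-expanded normal NK cells: 5 concentrations (10-fold steps over a 10,000-fold range), 72 h at 37 °C, viability by CellTiter-Glo normalised to DMSO and benzethonium chloride controls; DSS from the fitted curve.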

NKL (IL-2 2.5 ng/mL) [2] = assay: drug sensitivity score (DSS) (DSS units); higher = more sensitive; extreme values may be limits of the assay; conditions: 72 h
NK-YS (IL-2 2.5 ng/mL) [3] = assay: as above; conditions: 72 h
[4] = system: normal primary NK cells, pool 1 (3 donors) (IL-2 2.5 ng/mL); assay: as above; conditions: 72 h
DERL-7 (IL-2 2.5 ng/mL) [5] = assay: as above; conditions: 72 h
[6] = system: normal primary NK cells, pool 2 (3 donors) (IL-2 2.5 ng/mL); assay: as above; conditions: 72 h
[7] = system: normal primary NK cells, pool 3 (3 donors) (IL-2 2.5 ng/mL); assay: as above; conditions: 72 h
[8] = system: normal primary NK cells, pool 1 (3 donors), resting (IL-2 0 ng/mL); assay: as above; conditions: 72 h
KAI3 (IL-2 2.5 ng/mL) [9] = assay: as above; conditions: 72 h
YT (IL-2 2.5 ng/mL) [10] = assay: as above; conditions: 72 h
SNK-6 (IL-2 2.5 ng/mL) [11] = assay: as above; conditions: 72 h
KHYG-1 (IL-2 2.5 ng/mL) [12] = assay: as above; conditions: 72 h
NK-92 (IL-2 2.5 ng/mL) [13] = assay: as above; conditions: 72 h
IMC-1 (IL-2 20 ng/mL) [14] = assay: as above; conditions: 72 h
NKL (IL-2 2.5 ng/mL) [15] = assay: percent inhibition of viability; higher = more inhibition; conditions: 72 h
NK-YS (IL-2 2.5 ng/mL) [16] = assay: as above; conditions: 72 h
[17] = system: normal primary NK cells, pool 1 (3 donors) (IL-2 2.5 ng/mL); assay: as above; conditions: 72 h
DERL-7 (IL-2 2.5 ng/mL) [18] = assay: as above; conditions: 72 h
[19] = system: normal primary NK cells, pool 2 (3 donors) (IL-2 2.5 ng/mL); assay: as above; conditions: 72 h
[20] = system: normal primary NK cells, pool 3 (3 donors) (IL-2 2.5 ng/mL); assay: as above; conditions: 72 h
[21] = system: normal primary NK cells, pool 1 (3 donors), resting (IL-2 0 ng/mL); assay: as above; conditions: 72 h
KAI3 (IL-2 2.5 ng/mL) [22] = assay: as above; conditions: 72 h
YT (IL-2 2.5 ng/mL) [23] = assay: as above; conditions: 72 h
SNK-6 (IL-2 2.5 ng/mL) [24] = assay: as above; conditions: 72 h
KHYG-1 (IL-2 2.5 ng/mL) [25] = assay: as above; conditions: 72 h
NK-92 (IL-2 2.5 ng/mL) [26] = assay: as above; conditions: 72 h
IMC-1 (IL-2 20 ng/mL) [27] = assay: as above; conditions: 72 h
[28] = system: normal NK cells expanded with K562-aAPC; assay: drug sensitivity score (DSS) (DSS units); higher = more sensitive; extreme values may be limits of the assay; conditions: 72 h; IL-2 2.5 ng/mL
Description: as §1

Cc1cc2c(F)c(Oc3ncnn4cc(OC[C@@H](C)O)c(C)c34)ccc2[nH]1 [Brivanib] (max concentration tested 1000 nM)
percent inhibition of viability [%]
Conditions | 0.1 nM | 1 nM | 10 nM | 100 nM | 1000 nM
DERL-7 (IL-2 2.5 ng/mL) [18] | 0.94 | 7.48 | -2.36 | 3.07 | -1.62
IMC-1 (IL-2 20 ng/mL) [27] | -8.23 | -2.37 | -10.1 | -3.91 | -8.67
KAI3 (IL-2 2.5 ng/mL) [22] | -2.86 | 1.99 | -5.53 | -0.99 | -2.38
KHYG-1 (IL-2 2.5 ng/mL) [25] | -4.66 | -2.28 | -3.77 | -3.68 | -5.25
NK-92 (IL-2 2.5 ng/mL) [26] | -10.1 | -9.6 | -3.98 | -10.2 | -5.2
NK-YS (IL-2 2.5 ng/mL) [16] | -2 | -5.08 | -6.17 | 0.88 | 13.4
NKL (IL-2 2.5 ng/mL) [15] | -11.2 | -9.83 | -21.6 | -12.1 | -10.2
SNK-6 (IL-2 2.5 ng/mL) [24] | 5.84 | -0.07 | 3.56 | 8.94 | 4.87
YT (IL-2 2.5 ng/mL) [23] | -2.1 | -2.63 | -1.47 | -0.95 | -3.56
[1] | 0.76 | -1.44 | 1.84 | -3.64 | -2.22
[17] | -8.41 | -6.09 | 4.52 | -3.63 | -4.56
[19] | -6.73 | -10 | -9.37 | -10.3 | -8.25
[20] | -9.42 | -10.1 | -12.4 | -11 | -7.07
[21] | -11.7 | -6.81 | 7.63 | -9.3 | -5.72

Conditions | drug sensitivity score
DERL-7 (IL-2 2.5 ng/mL) [5] | 0
IMC-1 (IL-2 20 ng/mL) [14] | 0
KAI3 (IL-2 2.5 ng/mL) [9] | 0
KHYG-1 (IL-2 2.5 ng/mL) [12] | 0
NK-92 (IL-2 2.5 ng/mL) [13] | 0
NK-YS (IL-2 2.5 ng/mL) [3] | 0.18
NKL (IL-2 2.5 ng/mL) [2] | 0
SNK-6 (IL-2 2.5 ng/mL) [11] | 0
YT (IL-2 2.5 ng/mL) [10] | 0
[4] | 0
[6] | 0
[7] | 0
[8] | 0
[28] | 0

O=C(O)CCCc1ccc(N(CCCl)CCCl)cc1 [Chlorambucil] (max concentration tested 10000 nM)
percent inhibition of viability [%]
Conditions | 1 nM | 10 nM | 100 nM | 1000 nM | 10000 nM
DERL-7 (IL-2 2.5 ng/mL) [18] | -3.58 | -2.26 | -1.57 | 2.26 | 35.3
IMC-1 (IL-2 20 ng/mL) [27] | -7.26 | -1.26 | -5.09 | -7.21 | 20.6
KAI3 (IL-2 2.5 ng/mL) [22] | -12.3 | 0 | 13 | 21.6 | 84.8
KHYG-1 (IL-2 2.5 ng/mL) [25] | -4.53 | -1.14 | -2.99 | -0.01 | 59
NK-92 (IL-2 2.5 ng/mL) [26] | -16.2 | -10.6 | -3.93 | -0.43 | 69.5
NK-YS (IL-2 2.5 ng/mL) [16] | -6.87 | -0.61 | 3.17 | 13.6 | 84.7
NKL (IL-2 2.5 ng/mL) [15] | -13 | -7.71 | -6.04 | 27.6 | 92.1
SNK-6 (IL-2 2.5 ng/mL) [24] | 9.02 | 25.1 | -1.14 | 10.8 | 92.4
YT (IL-2 2.5 ng/mL) [23] | -0.58 | -2.33 | -2.72 | -5.92 | 9.19
[1] | -0.47 | -10 | -5.18 | -1.85 | 46.2
[17] | -5.48 | -9.5 | 0.36 | 3.15 | 70.4
[19] | -11.7 | -6.52 | -4.85 | 1.94 | 69.2
[20] | -13.1 | -5.69 | -6.16 | -0.15 | 53
[21] | -14.6 | -7.61 | 2.57 | 19.2 | 88.2

Conditions | drug sensitivity score
DERL-7 (IL-2 2.5 ng/mL) [5] | 2
IMC-1 (IL-2 20 ng/mL) [14] | 0.4
KAI3 (IL-2 2.5 ng/mL) [9] | 7.66
KHYG-1 (IL-2 2.5 ng/mL) [12] | 3.19
NK-92 (IL-2 2.5 ng/mL) [13] | 3.79
NK-YS (IL-2 2.5 ng/mL) [3] | 6.96
NKL (IL-2 2.5 ng/mL) [2] | 9.13
SNK-6 (IL-2 2.5 ng/mL) [11] | 6.91
YT (IL-2 2.5 ng/mL) [10] | 0
[4] | 4.31
[6] | 4.06
[7] | 2.81
[8] | 7.95
[28] | 2.23
